Like-named read-outs stand apart in the source and are kept apart here.
Key:
tyrosinase = conditions: cited from earlier work; for mechanism of tyrosinase inhibition: literature [6,7]
tyrosinase from mushroom [1] = target: T1, tyrosinase from mushroom (Agaricus bisporus, UniProt C7FF04); assay: Inhibition of commercial mushroom tyrosinase, substrate L-DOPA; type: biochemical; conditions: 500 μM; read-out: Tyrosinase inhibition with L-DOPA [%]
Protocol: (§1) Studies on the Inhibition of the Activity of Commercial Tyrosinase from Mushroom (Sigma: T3824)
(§2) The following substrates were used for the enzymatic reaction: L-tyrosine and L-3,4-dihyroxyphenylalanine (L-DOPA). Both substrates were used in independent experiments. According to the literature, the use of L-DOPA enables the assessment of tyrosinase diphenolase activity, and L-tyrosine—the tyrosinase monophenolase activity. The determinations were performed in 96-well plates, in each well there was placed: 170 μL or 127.5 μL of 50 mM phosphate buffer (pH=6.8) with tyrosinase (1U/well or 3U/well) and 10 μL of a solution of the tested compound in DMSO (the final concentration in the well was 500 μM, 250 μM or 125 μM). The negative control used 10 u L of pure solvent (DMSO). To initiate the reaction, an appropriate substrate was added: L-tyrosine (62.5 μL of solution in phosphate buffer) or L-DOPA (20 μL of solution in phosphate buffer). After a 25-minute incubation, the absorbance was measured at 475 nm using a microplate reader. The percentage of inhibition of tyrosinase activity was calculated using the formula: [(AC−AT)/[…], where AC—is the absorbance of the negative control, AT—is the absorbance of the sample containing the tested compound.

S. typhimurium TA1537 = assay: Ames microplate test, TA1537; type: cell-based, Salmonella typhimurium; conditions: without S9
Protocol: (§3) Bacteria were grown overnight in growth medium.

S. typhimurium TA1535 = assay: Ames microplate test, TA1535; conditions: without S9;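 further: bacteria exposed 90 min at 37 °C in exposure medium, then 48 h in indicator medium in 384-well plates, yellow (revertant) wells counted per condition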
Protocol: The study used the Ames microplate test (Ames MPF™ Penta 2 by Xenometrix, Allschwil, Switzerland). Growth medium, exposure medium, indicator medium, positive controls, hepatic microsomal fraction, NADP, glucose-6-phosphate, Salmonella typhimurium and Escherichia coli strains were components of the purchased experimental kit. Bacteria were grown overnight in growth medium. They were then exposed to the test compound at the appropriate concentration in exposure medium without or with the rat microsomal fraction S9 in 24-well plates for 90 min at 37° C. with shaking. Then, indicator medium was added to the wells and pipetted into 384-well plates, which were incubated for 48 hours at 37° C. without shaking. Results were assessed by counting the wells in which the medium turned yellow for each experimental condition.

CHO-K1 cells = assay: Cytotoxicity (MTT) in CHO-K1 cells before the micronucleus test; type: cell-based, Chinese hamster; conditions: 24 hours
Protocol: The assay was performed using a Chinese hamster ovary cell line (CHO-K1) purchased from the American Type Culture Collection (ATCC). The cells were cultured in F-12K medium with the addition of 10% fetal bovine serum (FBS) and antibiotics (streptomycin/penicillin) in an incubator at 37° C. and 5% CO2 concentration). Before the actual micronucleus test, a cytotoxicity assessment was performed to ensure that the actual test was performed only at safe concentrations. For this purpose, cells were transferred to 96-well plates and incubated with the tested compounds for 24 hours. After this time, the MTT test was performed and cell viability was assessed in comparison to the control group (cells cultured with DMSO at the same concentration as in the case of the tested samples).

[2] = Lipophilicity coefficient RM0 by reversed phase thin layer chromatography; type: physicochemical; conditions: RP-18 TLC, methanol/phosphate buffer pH=7.4
Protocol: Confirmation of the identity and purity of the obtained compounds consisted in the registration and interpretation of 1H NMR and 13C NMR spectra (the spectra were recorded using an ECZR 500 MHZ (JEOL) series FT-NMR spectrophotometer), as well as the registration and interpretation of LC-MS spectra (the spectra were recorded using Acquita UPLC system (Waters) coupled with a Waters TQD mass spectrometer). The melting point was measured using the open capillary method in the IA9300 device (Electrothermal). The lipophilicity coefficient RM0 was determined by reversed phase thin layer chromatography. In the study, aluminum plates 20×20 cm covered with modified silica gel RP-18 F254 (Merck) were used as the solid phase. The mobile phase consisted of solutions of methanol and 100 mM phosphate buffer (pH=7.4), characterized by a variable methanol content ranging from 95 to 65% (v/v). The tested compounds were dissolved in methanol to obtain solutions with a concentration of 1 mg/mL. Then, […] of the solutions prepared in this way were transferred to the starting line on aluminum plates, which were then placed in chromatographic chambers previously saturated with mobile phase vapors for at least 1 hour. All activities, including the development of chromatograms, were carried out at room temperature. After developing the chromatograms to approximately 1-2 cm from the end of the plate, the plates were dried and then the distance traveled by the tested compounds was visualized under UV light (λ=254 nm). The experiment was performed in duplicate for the specified conditions. For all samples, Rf was calculated according to the formula Rf=a/b, where a—the distance traveled by the tested compound, b—the distance traveled by the mobile phase. Then, the RM parameter was calculated for all samples according to the formula RM=log (1/Rf−1), obtaining a linear relationship between the RM values and the methanol concentration in the mobile phase. The log P coefficient was also calculated using the following computer programs: ACD/ChemSketch 2020.1.2 and ChemDraw 20.0.0.41.

E. coli WP2 = assay: Ames microplate test, E. coli WP2; conditions: without S9;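 further: bacteria exposed to compound for 90 min at 37 °C in 24-well plates, then transferred with indicator medium to 384-well plates and incubated 48 h before yellow well counting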
S. typhimurium TA98 = assay: Ames microplate test, TA98; type: cell-based, Salmonella typhimurium; conditions: without S9
Protocol: as §3

tyrosinase from mushroom [3] = target: T1, tyrosinase from mushroom; assay: Inhibition of commercial mushroom tyrosinase, substrate L-tyrosine; type: biochemical; conditions: 500 μM; read-out: Tyrosinase inhibition with L-tyrosine [%]
Protocol: as §1, §2

[4] = test system: B16-F10 murine melanoma cell line; assay: Cytotoxicity (MTT) in B16-F10 murine melanoma cells; type: cell-based; conditions: 48 h
Protocol: Cytotoxicity Assessment in the B16-F10 Murine Melanoma Cell Line (ATTC CRL-6745)—Preliminary Safety Assessment for Subsequent Studies
In order to determine safe doses of compounds for testing the inhibition of melanogenesis in a murine melanoma cell line, cytotoxicity tests were performed. Cytotoxicity was determined by the colorimetric method using MTT ([3-(4,5-dimethyl-2-thiazolyl)-2,5-diphenyl-2H-tetrazolium bromide, Sigma M5655). For this purpose, cells were transferred to 96-well plates in an amount of 5000/well. After 24 h of culture in an incubator in F10-Ham medium with 1% FBS, the tested compounds at various concentrations were added to the wells together with fresh medium. DMSO was added to the medium in a negative control. The MTT test was performed after further culture for 48 h. Then the medium was removed and the formed formazan crystals were dissolved in DMSO. The absorbance was measured at 570 nm in a plate reader and the result was compared to the control (DMSO), which was 100%. The percentage of viability was calculated using the formula: [AT/AC*100], where AT is the absorbance of the test sample, AC—absorbance of the control sample.

S. typhimurium TA100 = assay: Ames microplate test, TA100; type: cell-based, Salmonella typhimurium; conditions: without S9
[5] = literature [7], read-out: IC50, tyrosinase inhibition

T1 sequence (C7FF04 2-392): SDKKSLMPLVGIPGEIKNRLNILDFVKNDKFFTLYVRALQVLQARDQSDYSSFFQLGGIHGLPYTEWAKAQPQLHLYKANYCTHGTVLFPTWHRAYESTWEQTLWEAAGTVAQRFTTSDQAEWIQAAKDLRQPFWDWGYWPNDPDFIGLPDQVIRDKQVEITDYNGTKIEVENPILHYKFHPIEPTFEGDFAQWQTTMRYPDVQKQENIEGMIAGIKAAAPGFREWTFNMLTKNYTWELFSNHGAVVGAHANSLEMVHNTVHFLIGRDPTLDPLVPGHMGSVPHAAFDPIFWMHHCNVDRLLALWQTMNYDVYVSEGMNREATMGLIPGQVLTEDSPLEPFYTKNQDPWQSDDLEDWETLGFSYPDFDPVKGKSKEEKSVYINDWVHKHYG
T1 sequence (G1K3P4 entry or part of it, further chain): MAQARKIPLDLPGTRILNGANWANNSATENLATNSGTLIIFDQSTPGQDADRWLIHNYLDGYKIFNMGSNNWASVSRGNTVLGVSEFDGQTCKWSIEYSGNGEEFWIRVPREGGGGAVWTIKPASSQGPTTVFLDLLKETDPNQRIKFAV

## COc1ccc(C=CC(=O)O)cc1 [4-methoxycinnamic acid]
tyrosinase; literature [6], read-out: IC50, tyrosinase diphenolase activity
  IC50: 420 µM

## O=C(O)C=Cc1ccccc1Cl [2-Chlorocinnamic acid]
tyrosinase
  mechanism of tyrosinase inhibition: reversible non-competitive mechanism
tyrosinase; [5]
  IC50: 765 µM

## O=C(O)C=Cc1ccc(Cl)cc1Cl [2,4-dichlorocinnamic acid]
tyrosinase
  mechanism of tyrosinase inhibition: reversible non-competitive mechanism
tyrosinase; [5]
  IC50: 295 µM

## CC(CO)NC(=O)/C=C/c1ccc(Cl)cc1 (centres unmarked) [Compound A-102, (2E)-3-(4-chlorophenyl)-N-(1-hydroxypropan-2-yl)prop-2-enamide]
Tyrosinase from mushroom [1]
  inhibition at 500 µM: 53 ± 1.99%
S. typhimurium TA1537; 0.5 mM
  Increase in the number of yellow wells compared to the reference level, TA1537: 0.33
S. typhimurium TA1537; 1.0 mM
  Increase in the number of yellow wells compared to the reference level, TA1537: 0.00
S. typhimurium TA1537; 2.0 mM
  Increase in the number of yellow wells compared to the reference level, TA1537: 1.00
S. typhimurium TA1535; 0.5 mM
  Increase in the number of yellow wells compared to the reference level, TA1535: 0.55
S. typhimurium TA1535; 1.0 mM
  Increase in the number of yellow wells compared to the reference level, TA1535: 0.14
S. typhimurium TA1535; 2.0 mM
  Increase in the number of yellow wells compared to the reference level, TA1535: 0.89
CHO-K1 cells; 100 μM
  % Viability [mean], CHO-K1: 84.7%
CHO-K1 cells; 150 μM
  % Viability [mean], CHO-K1: 69.9%
CHO-K1 cells; 200 μM
  % Viability [mean], CHO-K1: 87.2%
[2]
  RM0: 2.12
E. coli WP2; 0.5 mM
  Increase in the number of yellow wells compared to the reference level, E. coli WP2: 0.48
E. coli WP2; 1.0 mM
  Increase in the number of yellow wells compared to the reference level, E. coli WP2: 1.03
E. coli WP2; 2.0 mM
  Increase in the number of yellow wells compared to the reference level, E. coli WP2: 0.79
S. typhimurium TA98; 0.5 mM
  Increase in the number of yellow wells compared to the reference level, TA98: 0.24
S. typhimurium TA98; 1.0 mM
  Increase in the number of yellow wells compared to the reference level, TA98: 0.24
S. typhimurium TA98; 2.0 mM
  Increase in the number of yellow wells compared to the reference level, TA98: 0.35
Tyrosinase from mushroom [3]
  inhibition at 500 µM: 75.5 ± 1.8%
[4]; 150 μM
  Cytotoxicity study in B16F10 cells, % viability: 80.6%
[4]; 200 μM
  Cytotoxicity study in B16F10 cells, % viability: 83.5%
[4]; 250 μM
  Cytotoxicity study in B16F10 cells, % viability: 75.7%
S. typhimurium TA100; 0.5 mM
  Increase in the number of yellow wells compared to the reference level, TA100: 1.08
S. typhimurium TA100; 1.0 mM
  Increase in the number of yellow wells compared to the reference level, TA100: 0.75
S. typhimurium TA100; 2.0 mM
  Increase in the number of yellow wells compared to the reference level, TA100: 0.92

From patent publication US20250263376A1, “(E)-N-CINNAMOYLAMINOALKANOLS WITH MELANOGENESIS INHIBITORY ACTIVITY” (Uniwersytet Jagiellonski, priority 2024, published 2025)
